The values that follow come from publication PMC6017881, “Probing the Influence of Linker Length and Flexibility in the Design and Synthesis of New Trehalase Inhibitors” (Molecules : A Journal of Synthetic Chemistry and Natural …, 2018).

Entries after “also recorded” stand apart in the source; their conditions may differ. Where two headings read alike, the source gives them in different places.

Assay [1] concerns the target T1, porcine kidney trehalase (Sus scrofa, UniProt I3LIR5).
T1 construct: porcine kidney trehalase (purchased from Sigma-Aldrich); purchased Sigma-Aldrich; host or cells: porcine kidney
T1 sequence (I3LIR5 24-583): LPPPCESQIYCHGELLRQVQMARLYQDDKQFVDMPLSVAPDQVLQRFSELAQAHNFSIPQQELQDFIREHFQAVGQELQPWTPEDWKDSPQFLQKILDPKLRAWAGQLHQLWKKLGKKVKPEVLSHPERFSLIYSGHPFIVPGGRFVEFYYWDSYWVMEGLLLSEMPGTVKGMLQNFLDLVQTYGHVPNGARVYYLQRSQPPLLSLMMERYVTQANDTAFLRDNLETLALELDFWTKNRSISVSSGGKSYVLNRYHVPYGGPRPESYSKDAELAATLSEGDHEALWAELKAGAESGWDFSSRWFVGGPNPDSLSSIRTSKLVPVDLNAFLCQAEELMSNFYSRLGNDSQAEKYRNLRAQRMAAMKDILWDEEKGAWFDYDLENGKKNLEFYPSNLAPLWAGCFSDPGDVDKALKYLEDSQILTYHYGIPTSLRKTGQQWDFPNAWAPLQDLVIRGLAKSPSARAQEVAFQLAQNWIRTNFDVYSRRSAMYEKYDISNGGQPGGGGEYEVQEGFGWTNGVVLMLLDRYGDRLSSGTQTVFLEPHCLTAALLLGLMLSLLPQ
Description: Trehalase inhibition, coupled assay with glucose-6-phosphate dehydrogenase and hexokinase (dose-response). In kind it is biochemical. The settings on record: 2.5 mM trehalose (close to Km), 30 °C; read-out: IC50 towards porcine trehalase. The procedure:
(§1) Compounds were tested for their inhibitory activity against insect trehalase of midge larvae of C. riparius, a good model for biochemical studies, and porcine kidney trehalase (purchased from Sigma-Aldrich, St. Louis, MO, USA) as the mammalian counterpart.
(§2) Trehalase activity was measured through a coupled assay with glucose-6-phosphate dehydrogenase and hexokinase according to Wegener at al. To examine the potential of each compound as a trehalase inhibitor, dose-response curves were established to determine the IC50 values. Experiments were performed at a fixed substrate concentration close to the Km value (0.5 mM for C. riparius and 2.5 mM for porcine trehalase), in the presence of increasing inhibitor concentrations.Initial rates as a function of inhibitor concentration were fitted to the following equation:(1) vi/v=1/1+([I]/IC50)^n where vi and v are the initial rate in the presence and in the absence of inhibitor, respectively, [I] is the inhibitor concentration, IC50 is the inhibitor concentration producing half-maximal inhibition, and n is the Hill coefficient.
(§3) All enzyme assays were performed in triplicates at 30 °C by using sample volumes varying from 5 to 20 μL in 1 mL test and using a Cary3 UV/Vis Spectrophotometer. Enzyme activities were analyzed by Cary Win UV application software for Windows XP.

In assay [2] the target is T1, porcine kidney trehalase. Set-up: method as in PMID 25407551. The settings on record: value taken from the literature; ref [7]; read-out: IC50 towards porcine trehalase; cited from earlier work.
The target in assay [3] is T2, C. riparius trehalase (Chironomus riparius, UniProt J7EJ73). Description: Trehalase inhibition, coupled assay with glucose-6-phosphate dehydrogenase and hexokinase (dose-response). In kind it is biochemical. The procedure:
as §1, §2, §3

Assay [4] concerns the target T2, C. riparius trehalase. Put plainly: Inhibition kinetics at varying trehalose concentration (Lineweaver-Burk plot and replots). Format: biochemical. The settings on record: varying trehalose concentration at two inhibitor concentrations. The procedure: To evaluate the inhibitory pattern we performed kinetics measurements by varying the trehalose concentration, at two different concentrations of compounds 9α and 9β.
Kinetic experiments were performed using C. riparius trehalase, measuring enzymatic activity at different trehalose concentrations from 0.05 to 20 mM in the presence of fixed inhibitor concentrations (5–10 µM for the compound 9α and 0.5–1 µM for the compound 9β). Kinetic parameters were calculated using a multiparameter, iterative, non-linear regression program based on the Marquardt-Levenberg algorithm (Sigma Plot, Jandel, CA, USA). Data are given ± S.D. of three independent experiments.
as §3

T2 sequence (J7EJ73 entry or part of it): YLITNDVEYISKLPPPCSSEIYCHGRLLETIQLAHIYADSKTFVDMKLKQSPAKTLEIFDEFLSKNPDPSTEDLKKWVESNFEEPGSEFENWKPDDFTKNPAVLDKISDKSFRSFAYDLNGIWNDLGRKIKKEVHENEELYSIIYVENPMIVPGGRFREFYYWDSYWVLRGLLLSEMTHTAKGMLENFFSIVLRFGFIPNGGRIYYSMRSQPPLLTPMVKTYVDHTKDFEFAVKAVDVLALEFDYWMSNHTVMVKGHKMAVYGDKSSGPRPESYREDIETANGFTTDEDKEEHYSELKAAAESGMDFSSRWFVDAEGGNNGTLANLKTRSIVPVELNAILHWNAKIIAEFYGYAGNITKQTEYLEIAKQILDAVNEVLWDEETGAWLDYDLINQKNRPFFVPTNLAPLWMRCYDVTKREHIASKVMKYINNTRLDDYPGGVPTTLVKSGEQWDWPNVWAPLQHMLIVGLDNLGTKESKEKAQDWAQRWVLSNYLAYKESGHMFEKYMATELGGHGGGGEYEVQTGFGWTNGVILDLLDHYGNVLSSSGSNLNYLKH

By IC50 is commonly meant the midpoint of a concentration-inhibition curve. As for `OC[C@@H]1[C@@H](O)[C@H](O)CN1CCOC1O[C@H](CO)[C@@H](O)[C@H](O)[C@H]1O` (stereo partly drawn) [9α,β], at porcine kidney trehalase [1], the IC50 was found to be 7.67 ± 3.91 µM.

In the case of `OC[C@@H]1[C@@H](O)[C@H](O)[C@H]2C[C@@H](O[C@H]3O[C@H](CO)[C@@H](O)[C@H](O)[C@H]3O)CN12` [Compound 4, 7-deoxycasuarine glucoside], at porcine kidney trehalase [2], the IC50 is 0.479 ± 0.045 µM. With `OC[C@@H]1[C@@H](O)[C@H](O)[C@H]2[C@H](O)[C@H](O)CN21` [Compound 6, (-)-uniflorine A], the IC50 at porcine kidney trehalase [2] is over 1000 µM. As for `OC[C@@H]1[C@@H](O)[C@H](O)[C@H]2C[C@H](O)CN12` [Compound 7, 7-deoxy-uniflorine A], the IC50 on porcine kidney trehalase [2] was over 1000 µM.

Regarding `OC[C@@H]1[C@@H](O)[C@H](O)[C@H]2C[C@H](O[C@H]3O[C@H](CO)[C@@H](O)[C@H](O)[C@H]3O)CN12` [Compound 8, (1R,2R,3R,6S,7aR)-1,2-dihydroxy-3-(hydroxymethyl)hexahydro-1H-pyrrolizin-6-yl-α-hexopyranoside], the “Inhibitory activity towards C. riparius trehalase (in words)” value on C. riparius trehalase [3] is on record as “active only in the μM range”. Further, on porcine kidney trehalase [1], the 50% inhibitory concentration (IC50) worked out at 191 ± 34.1 µM. On to `OC[C@@H]1[C@@H](O)[C@H](O)CN1CCO[C@H]1O[C@H](CO)[C@@H](O)[C@H](O)[C@H]1O` [Compound 9α], for which the IC50 on porcine kidney trehalase [1] came out at 27.6 ± 5.35 µM. On C. riparius trehalase [4], the “Inhibitory pattern (inhibition type)” value was “pure competitive”. Taken in the same sequence, the figures for `OC[C@@H]1[C@@H](O)[C@H](O)CN1CCO[C@@H]1O[C@H](CO)[C@@H](O)[C@H](O)[C@H]1O` [Compound 9β] were 5.84 ± 0.26 µM and “pure competitive”. For `OCC1OC(OCCCN2CC(O)C(O)C2CO)C(O)C(O)C1O` (stereo not drawn) [Compound 10], at C. riparius trehalase [3], the “Inhibitory activity towards C. riparius trehalase (in words)” value is “loose completely their inhibitory properties; also recorded: completely inactive”.

In the case of `OCC1OC(OCCCCN2CC(O)C(O)C2CO)C(O)C(O)C1O` (stereo not drawn) [Compound 11], the “Inhibitory activity towards C. riparius trehalase (in words)” value at C. riparius trehalase [3] is “loose completely their inhibitory properties; also recorded: completely inactive”.
